From patent publication US20090053721A1, “VOLTAGE-GATED ION CHANNEL MUTANTS FOR USE IN IDENTIFYING ION CHANNEL MODULATING COMPOUNDS” (CARDIOME PHARMA CORP., priority 2007, published 2009)
Where a name gives a salt, the structure may show the parent alone.

Tests used:
atrial fibrillation = details: intravenous; within 90 min of infusion; phase II and III trials; cited from earlier work
[1] = target: T1, Kv1.5 V512L mutant channel (Homo sapiens, UniProt P22460, V512L); experiment: Whole-cell patch-clamp block of mutant Kv1.5 current in HEK293 cells; assay type: cell-based; details: 10 μM vernakalant
T1 construct: subcloned as a fragment back into full-length Kv1.5; expressed in transfected cells; host or cells: HEK293, transient transfection
Description: (§1) Stable lines of HEK293 cells expressing Kv1.5, or transient transfection of mutant Kv1.5 channels were used in all experiments. Primers to generate mutant channels were synthesized by Integrated DNA Technologies, Inc. (Coralville, Iowa, USA), and mutants were generated using the Stratagene Quikchange kit (Stratagene, Calif., USA). The presence of the mutation was confirmed by DNA sequencing, and because of the size of the WT Kv1.5 clone, only the sequenced region harboring the targeted nucleotides was subcloned as a fragment back into full-length Kv1.5. Transient transfections were performed with HEK 293 cells plated at 20-30% confluency on sterile coverslips in 25 mm Petri dishes one day prior to transfection. 0.1-4 μg of ion channel DNA was incubated with 1 μg of eGFP DNA (to enable detection of transfected cells) and 2 μl of lipofectamine 2000 (Invitrogen) in 100 μl of Opti-MEM. This was added to the cells for overnight incubation after washing the media with 900 μl of MEM with 10% FBS.
(§2) The cells were grown in Minimal Essential Medium (MEM) at 37° C. in an air/5% CO2 incubator. Media contained 10% bovine serum and 0.5 mg/ml geneticin for stable lines. On the day before recording, stably-expressing cells were washed with MEM, treated with trypsin/EGTA for one minute and plated on 25 mm^2 coverslips. All cell culture supplies were obtained from Invitrogen (Mississauga, ON, Canada).
(§3) Control bath solution contained (in mM): 5 KCl, 135 NaCl, 2.8 sodium acetate, 1 MgCl2, 10 HEPES and 1 CaCl2, adjusted to pH 7.4 with NaOH. Patch pipettes contained (in mM): 130 KCl, 5 EGTA, 1 MgCl2, 10 HEPES, 4 Na2ATP, and 0.1 GTP, adjusted to pH 7.2 with KOH. […]
(§4) Coverslips with adherent cells plated on the surface were placed in a superfusion chamber (volume 300 μl) containing the control bath solution at 22° C. […] To assess drug block, half-log escalating concentrations of drug were added to the flowing bath solution and current traces were recorded with 400 ms depolarizing pulses to +60 mV at a frequency of 0.1 Hz. […]

[2] = target: T2, Kv1.5 A509G mutant channel (Homo sapiens, UniProt P22460, A509G); experiment: as above; assay type: cell-based; details: 10 μM vernakalant
T2 construct: subcloned as a fragment back into full-length Kv1.5; expressed in transfected cells; host or cells: HEK293, transient transfection
Description: as §1, §2, §3, §4

[3] = target: T3, Kv1.5 V481L mutant channel (Homo sapiens, UniProt P22460, V481L); experiment: as above; assay type: cell-based; details: 10 μM vernakalant
T3 construct: subcloned as a fragment back into full-length Kv1.5; expressed in transfected cells; host or cells: HEK293, transient transfection
Description: as §1, §2, §3, §4

IKs (KvLQT1) = IKs (KvLQT1) (Homo sapiens, UniProt P51787); experiment: Sensitivity of IKs channel to vernakalant (unpublished data)
IKs (KvLQT1), sequence (P51787 whole entry): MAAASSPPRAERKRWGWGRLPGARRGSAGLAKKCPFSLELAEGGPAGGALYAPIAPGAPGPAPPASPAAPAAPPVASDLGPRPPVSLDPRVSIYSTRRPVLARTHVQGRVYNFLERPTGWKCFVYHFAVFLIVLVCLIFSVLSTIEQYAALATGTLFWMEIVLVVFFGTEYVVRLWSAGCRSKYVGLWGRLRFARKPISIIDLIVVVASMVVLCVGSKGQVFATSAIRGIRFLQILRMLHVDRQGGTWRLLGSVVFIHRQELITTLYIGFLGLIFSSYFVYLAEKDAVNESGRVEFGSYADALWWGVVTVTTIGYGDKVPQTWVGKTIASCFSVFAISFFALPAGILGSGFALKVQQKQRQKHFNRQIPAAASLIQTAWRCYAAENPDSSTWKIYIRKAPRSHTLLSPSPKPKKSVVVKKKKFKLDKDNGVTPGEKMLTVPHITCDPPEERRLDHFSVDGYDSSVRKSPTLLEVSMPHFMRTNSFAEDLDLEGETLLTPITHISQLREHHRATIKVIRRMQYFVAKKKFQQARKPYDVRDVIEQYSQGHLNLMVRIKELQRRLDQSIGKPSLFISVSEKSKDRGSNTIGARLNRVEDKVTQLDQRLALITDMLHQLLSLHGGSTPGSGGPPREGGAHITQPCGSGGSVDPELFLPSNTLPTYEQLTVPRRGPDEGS

T3 sequence (P22460 whole entry V481L, the tested form may be a part): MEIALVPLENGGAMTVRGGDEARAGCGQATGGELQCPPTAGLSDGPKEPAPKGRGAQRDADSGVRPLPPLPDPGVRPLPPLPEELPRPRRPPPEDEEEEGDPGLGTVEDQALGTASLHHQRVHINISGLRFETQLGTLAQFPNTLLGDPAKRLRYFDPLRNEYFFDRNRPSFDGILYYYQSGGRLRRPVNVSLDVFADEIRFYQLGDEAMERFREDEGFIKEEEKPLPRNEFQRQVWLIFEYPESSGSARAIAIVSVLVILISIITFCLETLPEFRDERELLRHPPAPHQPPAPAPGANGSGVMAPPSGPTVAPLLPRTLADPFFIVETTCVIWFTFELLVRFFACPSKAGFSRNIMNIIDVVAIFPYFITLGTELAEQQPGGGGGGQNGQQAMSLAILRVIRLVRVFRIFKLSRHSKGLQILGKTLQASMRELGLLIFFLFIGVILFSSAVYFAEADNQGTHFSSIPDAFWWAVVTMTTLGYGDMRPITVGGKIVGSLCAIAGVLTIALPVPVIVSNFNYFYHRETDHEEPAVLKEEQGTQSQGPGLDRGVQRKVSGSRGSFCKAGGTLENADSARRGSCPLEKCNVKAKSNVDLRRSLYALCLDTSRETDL
T1 sequence (P22460 whole entry V512L, the tested form may be a part): as the sequence (P22460 whole entry V481L, the tested form may be a part) above, with L481V, V512L counted along it
T2 sequence (P22460 whole entry A509G, the tested form may be a part): as the sequence (P22460 whole entry V481L, the tested form may be a part) above, with L481V, A509G counted along it

Structure (SMILES): COc1ccc(CCO[C@@H]2CCCC[C@H]2N2CC[C@@H](O)C2)cc1OC [Vernakalant, 3-Pyrrolidinol, 1-[(1R,2R)-2-[2-(3,4-dimethoxyphenyl)ethoxy]cyclohexyl]-,hydrochloride, (3R)]
- overall rate of conversion of AF to sinus rhythm (atrial fibrillation): ~52%
- Fractional Block ± SEM [1]: 0.56 ± 0.04
- Fractional Block ± SEM [2]: 0.33 ± 0.07
- Fractional Block ± SEM [3]: 0.36 ± 0.03
- sensitivity of IKs channel to drug (IKs (KvLQT1)): not sensitive
